Reference: ChEMBL document CHEMBL1122901, “Synthesis and biological activities of 2-pyrimidinone nucleosides. 2. 5-Halo-2-pyrimidinone 2'-deoxyribonucleosides” (J Med Chem, 1985)

Columns and labels:
Human alphaherpesvirus 1 [1] = assay: Antiherpes activity was tested as percent of control of plaque-formation against ACG (Tr7) virus by 5 uM of the compound; type: functional, acycloguanosine resistant strain
Human alphaherpesvirus 1 [2] = assay: Antiherpes activity was tested as percent of control of plaque-formation against HSV-1 (KOS) virus by 5 uM of the compound; type: functional
[3] = Antiherpes activity was tested as percent of control of plaque-formation against PFAr virus by 5 uM of the compound; type: functional, Herpes simplex virus unknown type
Human alphaherpesvirus 1 [4] = assay: Antiherpes activity was tested as percent of control of plaque-formation against ACG (S1) virus by 5 uM of the compound; type: functional, acycloguanosine resistant strain
Human alphaherpesvirus 1 [5] = assay: Antiherpes activity was tested as percent of control of plaque-formation against BVdUr virus by 5 uM of the compound; type: functional, bromovinyl deoxyuridine resistant strain
Human alphaherpesvirus 1 [6] = assay: Antiherpes activity was tested as percent of control of plaque-formation against HSV-1 (CL101) virus by 30 uM of the compound; type: functional
Human alphaherpesvirus 1 [7] = assay: Antiherpes activity was tested as percent of control of plaque-formation against BVdUr virus by 30 uM of the compound; type: functional, bromovinyl deoxyuridine resistant strain
Human alphaherpesvirus 2 [8] = assay: Antiherpes activity was tested as percent of control of plaque-formation against HSV-2 (333) virus by 30 uM of the compound; type: functional
Human alphaherpesvirus 1 [9] = assay: Antiherpes activity was tested as percent of control of plaque-formation against ACG (S1) virus by 30 uM of the compound; type: functional, acycloguanosine resistant strain
Human alphaherpesvirus 1 [10] = assay: Antiherpes activity was tested as percent of control of plaque-formation against ACG (Tr7) virus by 30 uM of the compound; type: functional, acycloguanosine resistant strain
Human alphaherpesvirus 1 [11] = assay: Antiherpes activity was tested as percent of control of plaque-formation against HSV-1 (KOS) virus by 30 uM of the compound; type: functional
Human alphaherpesvirus 1 [12] = assay: Binding affinity against HSV-1(KOS); type: functional, organism-based
Human alphaherpesvirus 2 [13] = assay: Antiherpes activity was tested as percent of control of plaque-formation against HSV-2 (333) virus by 100 uM of the compound; type: functional
Human alphaherpesvirus 2 [14] = assay: Binding affinity against HSV-2(333); type: functional, organism-based
Human alphaherpesvirus 2 [15] = assay: Antiherpes activity was tested as percent of control of plaque-formation against HSV-2 (CEU-G) virus by 100 uM of the compound; type: functional
Human alphaherpesvirus 1 [16] = assay: Antiherpes activity was tested as percent of control of plaque-formation against ACG (S1) virus by 100 uM of the compound; type: functional, acycloguanosine resistant strain
Human alphaherpesvirus 1 [17] = assay: Antiherpes activity was tested as percent of control of plaque-formation against BVdUr virus by 100 uM of the compound; type: functional, bromovinyl deoxyuridine resistant strain
[18] = Antiherpes activity was tested as percent of control of plaque-formation against PFAr virus by 100 uM of the compound; type: functional, Herpes simplex virus unknown type
Human alphaherpesvirus 1 [19] = assay: Antiherpes activity was tested as percent of control of plaque-formation against HSV-1 (KOS) virus by 100 uM of the compound; type: functional
Human alphaherpesvirus 1 [20] = assay: Antiherpes activity was tested as percent of control of plaque-formation against ACG (Tr7) virus by 100 uM of the compound; type: functional, acycloguanosine resistant strain
Human alphaherpesvirus 1 [21] = assay: Antiherpes activity was tested as percent of control of plaque-formation against HSV-1 (CL101) virus by 100 uM of the compound; type: functional

`Nc1nc2c(ncn2COCCO)c(=O)[nH]1` [ACYCLOVIR] showed a Control (Human alphaherpesvirus 1 [1]) of 85%, a Control (Human alphaherpesvirus 1 [2]) of 6.5% and a Control [3] of 100%. It also gave a Control (Human alphaherpesvirus 1 [4]) of 100% and a Control (Human alphaherpesvirus 1 [5]) of 0.7%.
Work on `O=c1[nH]c(=O)n([C@H]2C[C@H](O)[C@@H](CO)O2)cc1/C=C/Br` [BRIVUDINE] yielded a Control (Human alphaherpesvirus 1 [6]) of 0.4%, a Control (Human alphaherpesvirus 1 [7]) of 52% and a Control (Human alphaherpesvirus 2 [8]) of 1.7%. It also gave a Control (Human alphaherpesvirus 1 [9]) of 3.7%, a Control (Human alphaherpesvirus 1 [10]) of 0.8% and a Control (Human alphaherpesvirus 1 [11]) of 0.1%.
`O=c1[nH]c(=O)n([C@H]2C[C@H](O)[C@@H](CO)O2)cc1I` [IDOXURIDINE] gave a Ki (Human alphaherpesvirus 1 [12]) of 1840 nM, a Control (Human alphaherpesvirus 2 [13]) of 2.8% and a Ki (Human alphaherpesvirus 2 [14]) of 3980 nM. It also gave a Control (Human alphaherpesvirus 2 [15]) of 9.3%, a Control (Human alphaherpesvirus 1 [16]) of 22% and a Control (Human alphaherpesvirus 1 [17]) of 14%. The Control [18] was 0.1%, the Control (Human alphaherpesvirus 1 [19]) was 0.27% and the Control (Human alphaherpesvirus 1 [20]) was 2.6%. It also gave a Control (Human alphaherpesvirus 1 [21]) of 1.6%.
